In patent US8110543B2, “Anti-invasive and anti-angiogenic compositions” (Angstrom Pharmaceuticals, Inc., priority 1997, dated 2012):
Entries after “also recorded” stand apart in the source; their conditions may differ. Where two headings read alike, the source gives them in different places.

What was measured:
U87 = assay: In vitro proliferation, U87 cells; type: cell-based, human
Method: Å6 was also tested for its ability to inhibit the proliferation of cells other than endothelial cells in vitro.
Anti-angiogenic therapy is expected to produce both anti-proliferative and pro-apoptotic effects that would “prime” the tumor chemotherapy with these alkylating agents. The proliferative index in the U87 tumors was evaluated using Ki-67 staining followed by digitization of the staining intensity and quantitation.

[1] = mouse, in vivo, iv, 37.5 mg/kg
Method: Protein binding studies are presently underway.
Pharmacokinetic analysis was carried out by Gilbert Lam, MicroConstants.

[2] = cynomolgus monkey, in vivo, iv, 37.5 mg/kg
From the text: An LC/MS assay developed for the detection of Å6 in plasma has been validated for mouse and monkey plasma.

3LL = assay: Matrigel invasion assay, 3LL cells; type: cell-based, mouse; settings: all the cell lines tested
Method: Several peptides were tested for anti-invasive capacity in a Matrigel® invasion assay system as indicated above (Kleinman et al., supra; Parish et al., supra). Several invasive human tumor lines (PC-3, MDA-MB-231) and non-human tumors (3LL, Mat B-III) were examined. The rat breast cancer line Mat B III and the human prostate cancer line PC-3 were initially used.
Tumor cells (5×10^5/mL, in a volume of 200 μL) in serum-free RPMI 1640 medium were added to a disposable transwell invasion chamber coated with Matrigel® (Becton Dickinson, Lincoln Park, N.J.). The invasion chambers were placed in 24-well tissue culture plates filled with serum-free RPMI-1640 and the plates were placed in an atmosphere of 5% CO2 in humidified air at 37° C. for 48-72 hours. The chambers were then removed, inverted, and the cells which had invaded (and now appeared on the bottom face of the invasion chamber) were fixed and stained using Diff-Quick® (Scientific Products). Cells were counted in 10 different fields on each filter and an average obtained.

Substance: Ac-KPSSPPEE-NH2 [Å6, CH3CO-Lys-Pro-Ser-Ser-Pro-Pro-Glu-Glu-NH2]
- anti-proliferative effect, U87 (U87): No anti-proliferative effects; also recorded: did not inhibit
- potentiation of the anti-proliferative activity of CDDP against U87 cells (U87): did not potentiate
- potentiation of the pro-apoptotic activity of CDDP (U87): nor did it potentiate
- clearance [1]: 33.3 mL/min/kg
- half-life [1]: 12 min
- clearance [2]: 0.7 mL/min/kg
- half-life [2]: 24 min
- invasion of 3LL cells through Matrigel (3LL): inhibited
